Measured values reported in article PMC9307329, “Enzymes Inhibition and Antioxidant Potential of Medicinal Plants Growing in Oman” (BioMed Research International, 2022).

Target: Jack bean urease (Canavalia ensiformis, UniProt P07374)
Details: substrate urea; phosphate buffer pH […]; […]°C; […] min

Chain of Jack bean urease (P07374 whole entry, looked up): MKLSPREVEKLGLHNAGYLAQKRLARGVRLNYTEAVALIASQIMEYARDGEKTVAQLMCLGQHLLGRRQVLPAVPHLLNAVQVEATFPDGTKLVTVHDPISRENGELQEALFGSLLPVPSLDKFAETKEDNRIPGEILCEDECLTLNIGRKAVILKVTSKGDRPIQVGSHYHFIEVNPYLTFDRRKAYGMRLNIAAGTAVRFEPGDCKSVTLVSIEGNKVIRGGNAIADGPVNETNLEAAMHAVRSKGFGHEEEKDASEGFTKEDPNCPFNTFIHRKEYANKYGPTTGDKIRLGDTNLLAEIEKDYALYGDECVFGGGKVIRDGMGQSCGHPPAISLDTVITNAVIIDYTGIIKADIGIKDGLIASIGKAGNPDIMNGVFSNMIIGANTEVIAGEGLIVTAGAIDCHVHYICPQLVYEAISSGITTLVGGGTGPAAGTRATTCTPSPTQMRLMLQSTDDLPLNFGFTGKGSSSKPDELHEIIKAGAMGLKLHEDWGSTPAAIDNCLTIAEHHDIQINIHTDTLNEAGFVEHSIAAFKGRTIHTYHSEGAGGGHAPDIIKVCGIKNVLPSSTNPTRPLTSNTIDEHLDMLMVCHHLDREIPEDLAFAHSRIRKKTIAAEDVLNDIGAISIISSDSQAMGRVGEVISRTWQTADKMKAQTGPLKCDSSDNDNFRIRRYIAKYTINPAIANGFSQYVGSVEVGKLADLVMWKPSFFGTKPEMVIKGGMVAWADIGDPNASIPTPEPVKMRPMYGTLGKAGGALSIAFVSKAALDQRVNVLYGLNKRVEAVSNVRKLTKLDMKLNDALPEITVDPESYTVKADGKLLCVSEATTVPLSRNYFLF

NC(N)=S [Thiourea]
Urease IC50 ± SEM: 1.58 ± 0.95 µg/mL
